Test results: patent US7745411B2, “Methods for promoting erythropoiesis” (University of Southern California, priority 1998, dated 2010)
“Also recorded” adds a separate entry of the source.

Experiment: Unspecified test of effectiveness of AII fragments
Details: test not specified

Substance | effectiveness (tested, effective or not)
His-Pro-Phe (HPF) [AII(6-8)] | not to be effective
Tyr-Ile-His-Pro-Phe (YIHPF; printed: Tyr-Ile-His-Pro-Phe) [AII(4-8)] | not to be effective; also recorded: ineffective in repeated tests
